According to article PMC5031402 (PLoS ONE, 2016):
Like-named read-outs stand apart in the source and are kept apart here.

Experiments:
[1] = target: T1, brain AChE (Gallus gallus, UniProt P36196); conditions: Gallus domesticus (hen) brain AChE
T1 sequence (P36196 20-767): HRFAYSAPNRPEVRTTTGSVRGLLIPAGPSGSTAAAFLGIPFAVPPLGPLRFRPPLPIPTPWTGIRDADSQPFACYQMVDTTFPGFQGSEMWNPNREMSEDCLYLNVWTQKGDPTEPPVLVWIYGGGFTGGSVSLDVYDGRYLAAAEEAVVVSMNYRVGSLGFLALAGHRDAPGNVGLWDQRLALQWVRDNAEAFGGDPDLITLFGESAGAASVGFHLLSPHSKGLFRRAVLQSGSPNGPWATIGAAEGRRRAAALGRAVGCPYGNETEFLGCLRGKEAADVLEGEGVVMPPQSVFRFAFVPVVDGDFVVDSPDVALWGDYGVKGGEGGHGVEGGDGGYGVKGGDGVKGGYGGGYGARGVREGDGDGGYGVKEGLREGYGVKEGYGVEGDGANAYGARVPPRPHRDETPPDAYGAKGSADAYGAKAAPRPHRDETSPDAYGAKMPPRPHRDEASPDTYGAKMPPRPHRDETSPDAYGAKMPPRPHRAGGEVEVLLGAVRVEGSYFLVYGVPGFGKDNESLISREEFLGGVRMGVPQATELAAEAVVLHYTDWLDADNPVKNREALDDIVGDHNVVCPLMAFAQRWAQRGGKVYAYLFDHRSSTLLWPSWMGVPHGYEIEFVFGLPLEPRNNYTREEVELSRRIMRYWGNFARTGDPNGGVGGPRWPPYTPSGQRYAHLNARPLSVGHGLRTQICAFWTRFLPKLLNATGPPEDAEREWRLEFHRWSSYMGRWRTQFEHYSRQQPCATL
Description: Whole brains were suspended in buffer (1 g of tissue plus 10 mL sodium phosphate 0.1 M, pH 7.5) and homogenized in an ice bath using an Ultra-Turrax homogenizer. The homogenate was then centrifuged (5,000g/30 min/5°C), and the soluble fraction was discarded. The pellet was then resuspended using the same volume of a 0.1 g% Triton X-100 in a 0.1 M sodium phosphate, pH 7.5, solution, and re-homogenized. After a second centrifugation (15,000g/90 min/5°C), the supernatant resulting from the pellet ressolubilization, or “solubilized AChE—AchEsol” [7], was collected, frozen, and stored at -20°C. All assays were conducted at most 72 hours after production of the supernatant fractions (AChEsol).
Brain AChE activity was assayed spectrophotometrically in 0.1 M sodium phosphate Triton X-100 0.1 g% pH 7.5 by a modification of Ellman’s method [18], as described by Silva Filho and colleagues [7]. The specificity of AChE for substrates (P%) was calculated by the ratio of AChE activity when using propionylthiocholine as substrate divided by AChE activity when using acetylthiocholine: P%, [(activity with ProScol/activity with AceScol) x 100] (%) [6].
Inhibition kinetic constants (IKC) were obtained using the methods described by Kemp and Wallace [9] and Carr and Chambers [19], and by the equations proposed by Kitz and Wilson [10] and Main [12]. […]

[2] = test system: brain AChE; format: biochemical, Lagocephalus laevigatus
Description: (§1) The residual enzyme activities [Er] were evaluated.

[3] = test system: brain AChE; format: biochemical, Mugil liza; conditions: for inhibition of AChE: mullet AChE, 1-5 min incubation
Description: as §1

[4] = test system: brain AChE; conditions: read-out: IC50-30min; Rattus (rat) brain AChE; cited from earlier work
[5] = test system: AChE; conditions: read-out: IC50-30min; Genidens genidens, marine fish; cited from earlier work
[6] = test system: AChE; conditions: read-out: IC50-30min; Piaractus mesopotamicus, freshwater fish; cited from earlier work
[7] = test system: brain AChE; format: biochemical; conditions: Genidens genidens (catfish) brain AChE
Description: as §1

[8] = test system: brain AChE; conditions: read-out: IC50-30min; Gallus (chicken) brain AChE; cited from earlier work
[9] = test system: AChE; conditions: read-out: IC50-30min; Percophis brasiliensis, marine fish; cited from earlier work
[10] = test system: AChE; conditions: read-out: IC50-30min; Prochilodus lineatus, freshwater fish; cited from earlier work

## COP(=O)(OC)Oc1ccc([N+](=O)[O-])cc1 [methyl-paraoxon, dimethyl-4-nitrophenyl-phosphate]
[1]
  kp: phosphorylation rate constant: 0.47 ± 0.1 min⁻¹
[1]; pH 7.5, 0.1 g% Triton X-100
  ki: Bimolecular reaction constant: 15010 ± 1090 M⁻¹ s⁻¹
[2]; Lagocephalus laevigatus (puffer fish) brain AChE
  kp: phosphorylation rate constant: 0.55 ± 0.08 min⁻¹
[2]; Lagocephalus laevigatus (puffer fish) brain AChE, pH 7.5, 0.1 g% Triton X-100
  ki: Bimolecular reaction constant: 155 ± 12.7 M⁻¹ s⁻¹
[2]; Lagocephalus laevigatus (puffer fish) brain AChE, read-out: Kd: dissociation constant of enzyme-inhibitor complex (EI)
  Kd: 62600 ± 14700 nM
[2]; read-out: IC50: concentration that produced 50% inhibition of brain AChE activity in 30 min, Lagocephalus laevigatus (puffer fish), 30 min incubation, estimated using the ki
  IC50: 2840 ± 145 nM
[3]; Mugil liza (mullet) brain AChE
  kp: phosphorylation rate constant: 1.64 ± 0.6 min⁻¹
[3]; Mugil liza (mullet) brain AChE, pH 7.5, 0.1 g% Triton X-100
  ki: Bimolecular reaction constant: 179.5 ± 11.5 M⁻¹ s⁻¹
[3]; Mugil liza (mullet) brain AChE, read-out: Kd: dissociation constant of enzyme-inhibitor complex (EI)
  Kd: 159000 ± 59600 nM
[3]; 5μM of MP
  inhibition of AChE: less than 10%
[3]; 208μM of MP
  inhibition of AChE: higher than 90%
[3]; read-out: IC50: concentration that produced 50% inhibition of brain AChE activity in 30 min, Mugil liza (mullet), 30 min incubation, estimated using the ki
  IC50: 2880 ± 422 nM
[4]
  IC50: 29 nM
[5]
  IC50: 455 nM
[6]
  IC50: 3110 nM
[7]
  kp: phosphorylation rate constant: 0.71 ± 0.1 min⁻¹
[7]; pH 7.5, 0.1 g% Triton X-100
  ki: Bimolecular reaction constant: 588 ± 26.7 M⁻¹ s⁻¹
[7]; read-out: Kd: dissociation constant of enzyme-inhibitor complex (EI)
  Kd: 20300 ± 2950 nM
[8]
  IC50: 37 nM
[9]
  IC50: 3340 nM
[10]
  IC50: 123 nM
